# Test results taken from PMC7730206, “2-Deoxy-D-glucose Promotes Buforin IIb-Induced Cytotoxicity in Prostate Cancer DU145 Cells and Xenograft Tumors” (Molecules, 2020).
# pIC50: −log10 of the molar value. “Also recorded” adds a separate entry of the source.
# Tests used:
# DU145 cells [1] = experiment: Mitochondrial membrane potential (JC-1, flow cytometry); format: cell-based, human; conditions: for effect on Δψm (JC-1 green/red fluorescence ratio, words): 2 mM 2-DG, 2 μM buforin IIb 12 h
# Protocol: The JC-1 Assay Kit was used to measure changes in mitochondrial membrane potential. Briefly, cells (5 × 10^5 cells/mL) were seeded into 6-well plates and treated with 2-DG (2 mM) for 12 h, then treated with or without buforin IIb (2 μM) for 12 h. DU145 cells were collected, washed in PBS, and incubated with 10 μg/mL JC-1 for 30 min. The cells were then collected by centrifugation and analyzed by flow cytometry. The red fluorescence indicated JC-1 aggregates, whereas green fluorescence indicated JC-1 monomers. Aggregated JC-1 (red fluorescence) indicates a high membrane potential, whereas monomer JC-1 (green fluorescence) indicates a membrane collapse.
# DU145 cells [2] = experiment: ROS assay (H2DCFDA, flow cytometry); format: cell-based, human; conditions: 2 mM 2-DG 12 h, with or without 2 μM buforin IIb 6 h; combination compared with 2 μM buforin alone, p < 0.001
# Protocol: Intracellular ROS level was measured by detecting the fluorescence intensity of the peroxide sensitive fluorescent probe H2DCFDA. Briefly, DU145 cells (1 × 10^5 cells/mL) were seeded into 24-well plates and treated with 2-DG (2 mM) for 12 h, then treated with or without buforin IIb (2 μM) for 6 h, followed by incubation with 10 μM H2DCFDA for 30 min in the dark. The fluorescence intensity was measured at 488 nm by flow cytometry to evaluate the production of ROS.
# [3] = test system: normal prostatic epithelial WPMY-1 cell line; experiment: CCK-8 cell viability assay, WPMY-1; format: cell-based
# Protocol: (§1) Cells were seeded in 96-well plates at a density of 1 × 10^5 cells/mL in medium, and then treated with different concentrations of buforin IIb and 2-DG alone or in combination for 24 h. After treatment, 10 μL CCK-8 was added to each well, and the plates were incubated in the dark at 37 °C for 2 h. Absorbance at 450 nm was measured using a […]1 multifunction microplate reader. Each experiment was performed in triplicate, and cell viability was expressed as a percentage of the control. The drug-drug interactions between buforin IIb and 2-DG were evaluated using the combination index (CI) described by Chou and Talalay, and calculated using Compusyn software (Biosoft). CI values < 1, = 1 or > 1 indicated synergy, additivity, or antagonism, respectively.
# DU145 cells [4] = experiment: L-lactate production; format: cell-based, human; conditions: 2 mM 2-DG 24 h; 2 μM buforin IIb 12 h; combination: 2-DG pretreatment 12 h then buforin IIb 12 h; lactate in medium
# Protocol: (§2) Cells were seeded at approximately 3 × 10^5 cells/mL in 6-well plates and treated with 2-DG (2 mM) alone for 24 h and buforin IIb alone (2 μM) or both for 12 h. After centrifugation, the culture medium and cells were collected to estimate the L-lactate and ATP content using the ATP content assay kit (Solarbio, Beijing, China) and L-lactate assay kit (Jiancheng Bioengineering, Nanjing, China) according to the manufacturer’s protocol. […] The collected cells were subjected to ultrasonic disruption and centrifuged at 8000× g for 10 min at 4 °C to collect the supernatant for intracellular ATP detection. Creatine kinase catalyzes the production of phosphocreatine from creatine and ATP. The level of ATP was determined by detecting the phosphocreatine content though the colorimetric method of phosphomolybdic acid at 700 nm. Six replicates were performed for each group, and the experiments were repeated three times to confirm the results.
# DU145 cells [5] = experiment: Intracellular ATP level; format: cell-based, human; conditions: 2 μM buforin IIb 12 h
# Protocol: as §2
# [6] = test system: Bcl-2, Bak, Bax, cytochrome c, caspase 3 in DU145 cells; experiment: Western blot of apoptosis-related proteins; format: cell-based, human; conditions: 2 mM 2-DG 12 h and/or 2 μM buforin IIb 12 h
# Protocol: DU145 cells were treated with 2-DG (2 mM) for 12 h, then treated with or without buforin IIb (2 μM) for 12 h. The cells were lysed on ice for 30 min in RIPA lysis buffer, and the lysates were centrifuged at 12,000× g for 10 min at 4 °C. The supernatant was collected, separated by 12% sodium dodecyl sulfate-polyacrylamide gel electrophoresis (SDS-PAGE), and transferred onto a polyvinylidene difluoride (PVDF) membrane. After blocking with 5% skim milk in PBS, the PVDF membrane incubated with primary antibodies against Bcl-2, Bak, Bax, cytochrome C, caspase 3, and β-actin overnight at 4 °C, followed by incubating with appropriate secondary antibodies. After washing, bands were visualized by using ECL detection system according to the manufacturer’s instructions.
# [7] = test system: prostate cancer cell line DU145; conditions: 1 mM 2-DG alone; ref 28 (Sahra et al. 2010); cited from earlier work
# Description: Glycolysis inhibitors have been studied extensively in recent years as a group of compounds with a potential anticancer activity. This is associated with increasing knowledge of metabolic disorders in cancer cells. One difference between cancer cells and normal cells is that the metabolism of cancer cells is reprogrammed to generate energy from aerobic glycolysis instead of oxidative phosphorylation, which affects mitochondrial function. One effective anticancer strategy is to combine mitochondrial and antiglycolytic drugs with different molecular targets, which may elicit synergistic e ...
# mouse erythrocytes = experiment: Hemolytic activity assay; format: cell-based; conditions: mouse RBCs 4% (v/v), 30 min, 37 °C, absorbance 570 nm; different concentrations
# Protocol: The hemolytic assay was conducted using mouse red blood cells (RBCs) as the method described previously. Briefly, erythrocytes were isolated by centrifugation at 1000× g for 10 min, washed three times with PBS, and resuspended at a final concentration of 4% (v/v). After incubating cells with 2-DG and buforin IIb alone or in combination at different concentrations for 30 min at 37 °C, the mixture was centrifuged at 1000× g for 5 min to obtain the supernatant. A volume of 100 μL of supernatant was removed to a new 96-well plate and the absorbance was measured at 570 nm. PBS and 0.1% Triton X-100 were used as agents for 0 and 100% hemolysis, respectively. The percentage of hemolysis was calculated as follows: (Asample − APBS)/(ATritonX-100 − APBS) × 100%, where A is the absorbance. Data are presented as the mean ± standard error of the mean (SEM) of at 4–6 independent experiments.
# [8] = test system: prostate cancer cell line DU145; experiment: CCK-8 cell viability assay, DU145; format: cell-based, human
# Protocol: as §1
# DU145 cells [9] = experiment: Annexin V-FITC/PI apoptosis flow cytometry; format: cell-based, human
# Protocol: DU145 cells were seeded (3 × 10^5 cells/mL) into 6-well plates and treated with buforin IIb (2 μM) and 2-DG (2 mM) alone and in combination for 24 h. After collecting and washing with PBS, the cells were re-suspended in 500 μL of binding buffer, stained with FITC-conjugated Annexin V and PI, and incubated on ice in the dark for 10 min. The stained cells were analyzed by flow cytometry, and the percentage of apoptotic cells was calculated using Cell Quest software.
# DU145 cells [10] = experiment: Cell cycle analysis (PI staining, FACS); format: cell-based, human; conditions: 2-DG 2 mM, buforin IIb 2 μM, alone or in combination, 24 h; for S/G2 population: PBS control 46.23%; for G0/G1 population (%G1): PBS control 53.7%
# Protocol: Cell cycle analysis was performed using the Cell Cycle Analysis Kit. Briefly, cells were seeded into 6-well culture plates at a density of 3 × 10^5 cells/mL. After treatment with 2-DG (2 mM) and buforin IIb (2 μM) alone or in combination for 24 h, cells were digested by 0.25% trypsin without EDTA, fixed in 70% cold ethanol for 5 h at 4 °C, and then stained with propidium iodide (PI) and RNase A solution for 30 min at 37 °C in the dark. The cell distribution across the cell cycle was analyzed with a FACS Vantage SE flow cytometer.
# DU145 xenograft tumors = experiment: DU145 xenograft tumor experiment; format: in vivo, BALB/c nude mice; conditions: buforin IIb 5 mg/kg tail vein, 2-DG 400 mg/kg oral gavage, days 1, 2, 3, 6, 9; tumor weight on day 12 vs PBS; n = 5 per group
# Description: Male BALB/c nude mice (4-6 weeks old) were obtained from the Model Animal Research Center of Nanjing University. All of the animal experiments were approved by the Institutional Animal Care and Use Committee (IACUC) of the Nanjing Normal University and Jiangsu Association for Laboratory Animal Science. BALB/c nude mice were subcutaneously injected with 3 × 10^6 DU145 cells in the right axillary region. When the tumor volume reached 75 mm^3, nude mice were randomly divided into the following four groups (n = 5 per group): PBS, buforin IIb (5 mg/kg), 2-DG (400 mg/kg), and combination group (5 mg/kg buforin IIb + 400 mg/kg 2-DG). Buforin IIb was injected through the tail vein of mice and 2-DG was administered via oral gavage on days 1, 2, 3, 6, and 9. Body weight and tumor volume were measured three times a week. Mice were sacrificed by isoflurane inhalation followed by cervical dislocation. The tumors were excised and assessed. Tumor volume was calculated using the formula V = ab^2/2, where 'a' and 'b' are the tumor dimensions at the longest and widest points, respectively. On day 12, tumor tissues were collected and weighed. […] PCNA and TUNEL positive cells were quantified by measuring pixels in 10 consecutive fields at 40× magnification. Positive cells were scored manually.
# DU145 cells [11] = experiment: EdU incorporation assay (cell proliferation); format: cell-based, human; conditions: buforin IIb 2 μM, alone or in combination, 24 h
# Protocol: Cultured cells were plated in 12-well plates at a density of 2 × 10^5 cells/mL and treated with buforin IIb (2 μM) and 2-DG (2 mM) alone and in combination for 24 h. Cells were then incubated with in medium containing EdU (10 μM) for 2 h, fixed with 4% paraformaldehyde for 15 min, and permeabilized with 0.2% Triton X-100 for 15 min. Cells were then incubated with EdU staining cocktail at room temperature in the dark for 30 min. After washing with PBS, cell nuclei were stained with DAPI at a concentration of 10 μg/mL for 15 min. More than five images of each well were acquired by fluorescence microscope, and the percentage of EdU-positive cells was evaluated.
compound,measurement,setting,value
"O=CC[C@@H](O)[C@H](O)[C@H](O)CO [2-DG, 2-Deoxy-D-glucose]","effect on Δψm (JC-1 green/red fluorescence ratio, words)",DU145 cells [1],no effect on Δψm
same,effect on mitochondrial Δψm and ROS production,DU145 cells [1]; 2-DG (2 mM) alone,no effect on mitochondrial Δψm and ROS production
same,"ROS, H2DCFDA fluorescence intensity",DU145 cells [2],no effect on H2DCFDA fluorescence intensity
same,cytotoxicity against WPMY-1 cells,[3]; 2 mM 2-DG and 2 μM buforin IIb alone or in combination,no significant cytotoxicity
same,inhibition of viability of WPMY-1 cells,[3]; 4 mM 2-DG and 4 μM buforin IIb alone or in combination,No significant inhibition of viability
same,effect on viability of WPMY-1 cells,[3]; all tested concentrations,no effect on the viability
same,"lactate production, % of that in the control",DU145 cells [4],approximately 60%
same,activity at 2000 µM,"DU145 cells [5]; Homo sapiens, DU-145, 2 mM 2-DG 24 h, read-out: ATP levels, % of control levels",70%
same,Bcl-2 family protein levels,[6],downregulated Bcl-2 and upregulated Bak
same,cytochrome c and caspase 3,[6],did not promote the release of cytochrome c from mitochondria or activate caspase 3
same,effect on cell viability and apoptosis in DU145 cells,[7],almost no effect on cell viability and apoptosis
same,hemolytic activity,mouse erythrocytes,no hemolytic activity
same,effect on DU145 cell viability / growth,[8]; 2 mM 2-DG alone,did not inhibit DU145 cell growth significantly; also recorded: no significant effect on cell viability and apoptosis
same,pIC50,"[8]; Homo sapiens, DU-145, CCK8 assay, 24 h, data not shown",1.92
same,induction of apoptosis,DU145 cells [9]; 2-DG alone (2 mM) compared with PBS control,did not induce DU145 cell apoptosis
same,%G2,DU145 cells [10]; PBS 8.15,7.2%
same,%S,DU145 cells [10]; PBS 38.08,28.05%
same,S/G2 population,DU145 cells [10],35.25%
same,G0/G1 population (%G1),DU145 cells [10],64.76%
same,tumor growth inhibition rate,DU145 xenograft tumors,39.53%
same,inhibition at 2000 µM,"DU145 cells [11]; Homo sapiens, DU-145, 2-DG 2 mM, read-out: inhibition of cell proliferation (rate)",14%
Buforin IIb,"effect on Δψm (JC-1 green/red fluorescence ratio, words)",DU145 cells [1],increased the green/red fluorescence ratio
same,"lactate production, % of that in the control",DU145 cells [4],~80%
same,"ATP levels, % of control levels",DU145 cells [5]; 2 mM 2-DG 24 h,30%
same,Bcl-2 family protein levels,[6],downregulated Bcl-2 and upregulated Bak
same,cytochrome c and caspase 3,[6],increased cytochrome c levels and induced the cleavage of procaspase 3
same,inhibition of DU145 cell viability,"[8]; 2 μM buforin IIb alone or with 2 mM 2-DG, 24 h, CCK-8",25%
same,apoptosis,"DU145 cells [9]; 2 μM buforin IIb alone or with 2 mM 2-DG, 24 h, Annexin V/PI FACS",21.45%
same,S/G2 population,DU145 cells [10],30.06%
same,G0/G1 population (%G1),DU145 cells [10],69.94%
same,inhibition of cell proliferation (rate),DU145 cells [11]; 2-DG 2 mM,53%
